Data published in US6740642B2, “Macrolides with antibacterial activity” (BAsilea Parmaceutica AG, priority 2000, dated 2004).
In brackets after ≈: the same amount, converted by molar mass.

Legend:
[1] = test system: St. pneumoniae SL199T; test: MIC, standard microdilution; assay type: cell-based, Streptococcus pneumoniae; conditions: Streptococcus pneumoniae, read-out: minimum inhibitory concentration (MIC)
How it was run: (§1)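 Read-out is the MIC from a standard microdilution susceptibility test. The procedure was performed as laid down in the NCCLS guideline for aerobic organisms.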

[2] = test system: St. pneumoniae 1/1; test: MIC, standard microdilution; assay type: cell-based, Streptococcus pneumoniae; conditions: Streptococcus pneumoniae, read-out: minimum inhibitory concentration (MIC)
How it was run: as §1

[3] = test system: St. pneumoniae 12288; test: MIC, standard microdilution; assay type: cell-based, Streptococcus pneumoniae; conditions: Streptococcus pneumoniae, read-out: minimum inhibitory concentration (MIC)
How it was run: as §1

[4] = test system: St. pneumoniae 1/4; test: MIC, standard microdilution; assay type: cell-based, Streptococcus pneumoniae; conditions: Streptococcus pneumoniae, read-out: minimum inhibitory concentration (MIC)
How it was run: as §1

[5] = test system: P. aeruginosa ATCC27853 (+Ery. 32 μg/ml); test: MIC, standard microdilution; assay type: cell-based
How it was run: as §1

[6] = test system: E. coli ATCC25922; test: MIC, standard microdilution; assay type: cell-based; conditions: Escherichia coli, read-out: minimum inhibitory concentration (MIC)
How it was run: as §1

[7] = test system: H. influenzae QK 12/87; test: MIC, agar dilution, HTM medium; assay type: cell-based, Haemophilus influenzae; conditions: Haemophilus influenzae, QK12/87, read-out: MIC
Description: (§2) The biological activities of compounds of the present invention against Haemophilus influenzae have been determined by standard agar dilution method using HTM medium (National Committee for Clinical Laboratory Standards. 1997. Methods for dilution antimicrobial susceptibility tests for bacteria that grow aerobically, 4th edition. Approved standard M7-A4. National Committee for Clinical Laboratory Standards, Wayne, Pa.).

[8] = test system: H. influenzae B 1501; test: MIC, agar dilution, HTM medium; assay type: cell-based, Haemophilus influenzae; conditions: Haemophilus influenzae, B1501, read-out: MIC
Description: as §2

[9] = test system: H. influenzae H20 HDL; test: MIC, agar dilution, HTM medium; assay type: cell-based, Haemophilus influenzae; conditions: Haemophilus influenzae, H20HDL, read-out: MIC
Description: as §2

[10] = test system: H. influenzae 23145; test: MIC, agar dilution, HTM medium; assay type: cell-based, Haemophilus influenzae; conditions: Haemophilus influenzae, read-out: MIC
Description: as §2

[11] = test system: H. influenzae ATCC 49247; test: MIC, agar dilution, HTM medium; assay type: cell-based, Haemophilus influenzae; conditions: Haemophilus influenzae, ATCC49247, read-out: MIC
Description: as §2

[12] = test system: H. influenzae 23369; test: MIC, agar dilution, HTM medium; assay type: cell-based, Haemophilus influenzae; conditions: Haemophilus influenzae, read-out: MIC
Description: as §2

[13] = test system: H. influenzae 1; test: MIC, agar dilution, HTM medium; assay type: cell-based, Haemophilus influenzae; conditions: Haemophilus influenzae, read-out: MIC
Description: as §2

[14] = test system: H. influenzae ATCC 9334; test: MIC, agar dilution, HTM medium; assay type: cell-based, Haemophilus influenzae; conditions: Haemophilus influenzae, ATCC9334, read-out: MIC
Description: as §2

[15] = test system: H. influenzae 11; test: MIC, agar dilution, HTM medium; assay type: cell-based, Haemophilus influenzae; conditions: Haemophilus influenzae, read-out: MIC
Description: as §2

[16] = test system: H. influenzae H28 HEL; test: MIC, agar dilution, HTM medium; assay type: cell-based, Haemophilus influenzae; conditions: Haemophilus influenzae, H28HEL, read-out: MIC
Description: as §2

[17] = test system: H. influenzae 3457; test: MIC, agar dilution, HTM medium; assay type: cell-based, Haemophilus influenzae; conditions: Haemophilus influenzae, read-out: MIC
Description: as §2

[18] = test system: H. influenzae 4139; test: MIC, agar dilution, HTM medium; assay type: cell-based, Haemophilus influenzae; conditions: Haemophilus influenzae, read-out: MIC
Description: as §2

[19] = test system: H. influenzae Christy; test: MIC, agar dilution, HTM medium; assay type: cell-based, Haemophilus influenzae; conditions: Haemophilus influenzae, read-out: MIC
Description: as §2

[20] = test system: H. influenzae 3640; test: MIC, agar dilution, HTM medium; assay type: cell-based, Haemophilus influenzae; conditions: Haemophilus influenzae, read-out: MIC
Description: as §2

[21] = test system: H. influenzae QK 50; test: MIC, agar dilution, HTM medium; assay type: cell-based, Haemophilus influenzae; conditions: Haemophilus influenzae, QK50, read-out: MIC
Description: as §2

[22] = test system: H. influenzae H13 LAH; test: MIC, agar dilution, HTM medium; assay type: cell-based, Haemophilus influenzae; conditions: Haemophilus influenzae, H13LAH, read-out: MIC
Description: as §2

[23] = test system: H. influenzae H36 ODL; test: MIC, agar dilution, HTM medium; assay type: cell-based, Haemophilus influenzae; conditions: Haemophilus influenzae, H36ODL, read-out: MIC
Description: as §2

[24] = test system: H. influenzae 2947; test: MIC, agar dilution, HTM medium; assay type: cell-based, Haemophilus influenzae; conditions: Haemophilus influenzae, read-out: MIC
Description: as §2

[25] = test system: H. influenzae 3201; test: MIC, agar dilution, HTM medium; assay type: cell-based, Haemophilus influenzae; conditions: Haemophilus influenzae, read-out: MIC
Description: as §2

[26] = test system: H. influenzae Rd KW20; test: MIC, agar dilution, HTM medium; assay type: cell-based, Haemophilus influenzae; conditions: Haemophilus influenzae, RDKW20, read-out: MIC
Description: as §2

[27] = test system: H. influenzae 12214; test: MIC, agar dilution, HTM medium; assay type: cell-based, Haemophilus influenzae; conditions: Haemophilus influenzae, read-out: MIC
Description: as §2

[28] = test system: S. aureus 745; test: MIC, standard microdilution; assay type: cell-based, Staphylococcus aureus; conditions: Staphylococcus aureus, read-out: minimum inhibitory concentration (MIC)
How it was run: as §1

[29] = test system: S. aureus 1086; test: MIC, standard microdilution; assay type: cell-based, Staphylococcus aureus; conditions: Staphylococcus aureus, read-out: minimum inhibitory concentration (MIC)
How it was run: as §1

[30] = test system: S. aureus ATCC29213; test: MIC, standard microdilution; assay type: cell-based, Staphylococcus aureus; conditions: Staphylococcus aureus, read-out: minimum inhibitory concentration (MIC)
How it was run: as §1

MIC [1] | MIC [2] | MIC [3] | MIC [4] | minimum inhibitory concentration (MIC) [5] | MIC [6] | MIC [7] | MIC [8] | MIC [9] | MIC [10] | MIC [11] | MIC [12] | MIC [13] | MIC [14] | MIC [15] | MIC [16] | MIC [17] | MIC [18] | MIC [19] | MIC [20] | SMILES | also measured
0.25 µg/mL (≈ 0.311 µM) | ≤ 0.12 µg/mL | 0.25 µg/mL (≈ 0.311 µM) | 0.25 µg/mL (≈ 0.311 µM) | >16 µg/mL | 8 µg/mL (≈ 9.94 µM) | 0.5 µg/mL (≈ 0.621 µM) | 1 µg/mL (≈ 1.24 µM) | 1 µg/mL (≈ 1.24 µM) | 4 µg/mL (≈ 4.97 µM) | 1 µg/mL (≈ 1.24 µM) | 4 µg/mL (≈ 4.97 µM) | 1 µg/mL (≈ 1.24 µM) | 4 µg/mL (≈ 4.97 µM) | 4 µg/mL (≈ 4.97 µM) | 2 µg/mL (≈ 2.48 µM) | 0.25 µg/mL (≈ 0.311 µM) | 2 µg/mL (≈ 2.48 µM) | 2 µg/mL (≈ 2.48 µM) | 2 µg/mL (≈ 2.48 µM) | CC[C@H]1OC(=O)[C@H](C)C(=O)[C@H](C)[C@@H](O[C@@H]2O[C@H](C)C[C@H](N(C)C)[C@H]2O)[C@](C)(OC)C[C@@H](C)C(=O)[C@H](C)[C@H]2[C@H](SCCn3cnc4c(N)ncnc43)C(=O)O[C@@]21C [Compound I-14, (3S,3aR,4R,6R,8R,9R,10R,12R,15R,15aS)-3-[[2-[6-Amino-9H-purine-9-yl]ethyl]thio]-15-ethyloctahydro-8-methoxy-4,6,8,10,12,15a-hexamethyl-9-[[3,4,6-trideoxy-3-(dimethylamino)-β-D-xylo-hexopyranosyl]oxy]-2H-furo[2,3-c]oxacyclotetradecin-2,5,11,13(3H,6H,12H)-tetrone] | MIC [21]: 2 µg/mL (≈ 2.48 µM); MIC [22]: 2 µg/mL (≈ 2.48 µM); MIC [23]: 2 µg/mL (≈ 2.48 µM); MIC [24]: 2 µg/mL (≈ 2.48 µM); MIC [25]: 4 µg/mL (≈ 4.97 µM); MIC [26]: 4 µg/mL (≈ 4.97 µM); MIC [27]: 2 µg/mL (≈ 2.48 µM); MIC [28]: > 16 µg/mL; MIC [29]: ≤ 0.12 µg/mL; MIC [30]: ≤ 0.12 µg/mL
1 µg/mL (≈ 1.26 µM) | ≤ 0.12 µg/mL | 8 µg/mL (≈ 10.1 µM) | ≤ 0.12 µg/mL | >16 µg/mL | > 16 µg/mL | 2 µg/mL (≈ 2.51 µM) | 4 µg/mL (≈ 5.03 µM) | 2 µg/mL (≈ 2.51 µM) | 4 µg/mL (≈ 5.03 µM) | 4 µg/mL (≈ 5.03 µM) | 8 µg/mL (≈ 10.1 µM) | 4 µg/mL (≈ 5.03 µM) | 4 µg/mL (≈ 5.03 µM) | 4 µg/mL (≈ 5.03 µM) | 2 µg/mL (≈ 2.51 µM) | 0.5 µg/mL (≈ 0.628 µM) | 2 µg/mL (≈ 2.51 µM) | 4 µg/mL (≈ 5.03 µM) | 2 µg/mL (≈ 2.51 µM) | CC[C@H]1OC(=O)[C@H](C)C(=O)[C@H](C)[C@@H](O[C@@H]2O[C@H](C)C[C@H](N(C)C)[C@H]2O)[C@](C)(OC)C[C@@H](C)C(=O)[C@H](C)[C@H]2[C@H](SCCn3cc(C)c(=O)[nH]c3=O)C(=O)O[C@@]21C [Compound I-7, (3S,3aR,4R,6R,8R,9R,10R,12R,15R,15aS)-15-Ethyloctahydro-8-methoxy-4,6,8,10,12,15a-hexamethyl-3-[[2-[5-methyl-2,4-1H,3H-pyrimidinedione-1-yl]ethyl]thio]-9-[[3,4,6-trideoxy-3-(dimethylamino)-β-D-xylo-hexopyranosyl]oxy]-2H-furo[2,3-c]oxacyclotetradecin-2,5,11,13(3H,6H,12H)-tetrone] | MIC [21]: 4 µg/mL (≈ 5.03 µM); MIC [22]: 4 µg/mL (≈ 5.03 µM); MIC [23]: 8 µg/mL (≈ 10.1 µM); MIC [24]: 4 µg/mL (≈ 5.03 µM); MIC [25]: 4 µg/mL (≈ 5.03 µM); MIC [26]: 4 µg/mL (≈ 5.03 µM); MIC [27]: 4 µg/mL (≈ 5.03 µM); MIC [28]: > 16 µg/mL; MIC [29]: ≤ 0.12 µg/mL; MIC [30]: ≤ 0.12 µg/mL
